{
  "source": "patent US11465965B2",
  "about": "“Double-headed protease inhibitor” (UBE INDUSTRIES, LTD., priority 2017, dated 2022)",
  "assay": "in vivo",
  "conditions": "male, SD, rat, po, 10 mg/kg",
  "method": "Each test compound was suspended in a 0.5 W/V % methylcellulose 400 solution to prepare a suspension, and the resulting suspension was orally administered to a male SD rat of 7 to 8-week old (weight: 180 to 250 g). After 0.25, 0.5, 1, 2, 4, 8, and 24 hour(s) of the administration of each test compound, blood (EDTA-added blood) was collected from jugular vein under isoflurane inhalation anesthesia. […] To the resulting blood plasma was added acetonitrile, a mixed solvent of acetonitrile and water (1:1 (V/V)), or a mixed solvent of acetonitrile and 0.1 M hydrochloric acid (1:1 (V/V)), then the resulting mixture was mixed at 750 rpm for 3 minutes in a shaker, and subjected to centrifugal separation at 3700 rpm for 2 minutes in a centrifuge to remove proteins. The resulting sample was subjected to LC (liquid chromatography)/MS (mass spectrometry) measurement under the following measurement conditions.\nEach compound concentration in blood plasma at each time of blood collection was calculated according to the internal standard method, and, area under the plasma concentration vs. time curve (AUCall (Area Under Curve)) was calculated according to the trapezoidal method.\nThe LC and MS systems used in the present test are as follows.\nLC: LC20 or LC30 HPLC system manufactured by Shimadzu Corporation\nColumn: Phenomenex Kinetex C18 (50×2.1 mm, 2.6 μm)\nColumn temperature: 40° C.\nMobile phase A: aqueous solution with 0.1% formic acid, Mobile phase B: 50% acetonitrile/methanol solution with 0.1% formic acid",
  "data": [
    {"smiles": "Cl.N=C(N)Nc1ccc2c(c1)CCCOc1c(cccc1C(=O)N(CCOCCOCCN(C(=O)c1cccc3c1OCCCc1cc(NC(=N)N)ccc1C(=O)O3)[C@H](CC(=O)O)C(=O)O)[C@H](CC(=O)O)C(=O)O)OC2=O", "note": "[21-(c), (2R,13R)-3,12-bis(10-guanidino-13-oxo-6,7,8,13-tetrahydrodibenzo[b,f][1,4]dioxecin-4-carbonyl)-6,9-dioxa-3,12-diazatetradecane-1,2,13,14-tetracarboxylic acid hydrochloride]", "values": [
      {"measurement": "AUC", "value": "≤ 100", "unit": "ng·h/mL"}
    ]}
  ]
}
